From PMC8120183, “Cardamonin inhibits the progression of oesophageal cancer by inhibiting the PI3K/AKT signalling pathway” (Journal of Cancer, 2021)
Peptide text beside a SMILES is read from it. * marks the point of attachment. Cbz = O=C(OCc1ccccc1)*; CH2F = FC*

Assays:
[1] = test system: human normal oesophageal cells (HET-1A); test: MTT assay, IC50 in normal cells; type: cell-based; conditions: 24 h and 48 h
Method: (§1) EC9706 and TE10 oesophageal cancer cells in the logarithmic growth phase were harvested and inoculated into 96-well plates at a density of 3000 cells/well. The cells were cultured in an incubator for 12 h and then treated with different concentrations of CAR and DMSO. The NC group was also set up. After incubation for 24 h or 48 h, 10 µL of MTT solution (5 mg/ml) was added to each well. The supernatant was aspirated, and 100 µL of DMSO was added to each well. The absorbance at a wavelength of 490 nm was measured using a microplate reader.
(§2) Supplementary Figure 1 (A -D) EC9706 and TE10 cells were treated with different concentrations of CAR or DMSO, and cell viability and the IC50 at 24 h and 48 h were examined by MTT assay. (E-H) HET-1A and GES-1 cells were treated with different […]
(§3) examined by MTT assay. (I-J) EC9706 cells were incubated with CAR or the caspase inhibitor Z-VAD- FMK or co-incubated, and mitochondrial apoptosis pathway- related proteins were detected by Western blot. […]
(§4) reverse the expression of Bcl2, Bax, Bad, caspase- 3, and cleaved caspase- 3. (K and L) The apoptosis of EC9706 cells after applying the caspase inhibitor Z-VAD- FMK was detected by […]
(§5) (1 picture or pasted object on this page, not shown here)

[2] = test system: E-cadherin, N-cadherin, vimentin, Snail, MMP2, MMP7, MMP9 in EC9706 cells; test: Western blot, EMT-related marker proteins and MMPs; type: cell-based, human
Method: (§6) Oesophageal cancer cells were inoculated into a 6-well plate (5×10^5 cells/well). Cells were treated with different concentrations of CAR and then incubated for an additional 48 h. The cells were lysed using radio-immunoprecipitation assay (RIPA) buffer. The protein concentration was determined using a BCA kit. Proteins were separated by 8-12% sodium dodecyl sulfate-polyacrylamide gel electrophoresis (SDS-PAGE) and then transferred to a polyvinylidene fluoride (PVDF) membrane. The membrane was blocked with 5% nonfat milk for 1 h and then incubated with primary antibodies at 4 °C overnight. The membrane was then incubated with secondary antibodies for 1 h at room temperature. Finally, the membrane was imaged using a chemiluminescence imaging analyser. The greyscale value of each target protein band was analysed using the software provided with the analyser.

TE10 cells = test: MTT assay, cell viability and IC50; type: cell-based, human
Method: as §1

EC9706 cells [3] = test: MTT assay, cell viability and IC50; type: cell-based, human
Method: as §1

[4] = test system: oesophageal cancer cell lines EC9706 and TE10; test: Colony formation assay; type: cell-based, human
Method: Oesophageal cancer cells were inoculated into 6-well plates at a density of 8×10^2 cells/well and treated with different concentrations of CAR. The cells were continuously cultured for two weeks until colonies visible to the naked eye had formed. Then, the supernatant was discarded, and crystal violet staining solution was added for 10 min. The cells were dried and photographed, and the colony formation rate was calculated.

[5] = Blood routine related indexes; type: in vivo, nude mice; conditions: Mean±SD (n=3)
Method: (§7) A suspension of EC9706 cells (2×10^7 cells/ml) was injected into the middle of and posterior to the armpit of 4- to 6-week-old male nude mice. One week after inoculation, a soybean-sized subcutaneous mass appeared in the armpits of the mice. Then, different doses of CAR (5, 15, or 25 mg/kg) or sodium carboxymethyl cellulose (CMC), which served as a control, were administered by gavage once every three days. The body weights of the mice and tumour size were measured at the same time. Mice were euthanized 26 days after drug administration. Immunohistochemistry (IHC) was used to stain the tumours, and stomach tissue was stained with haematoxylin-eosin (HE).

[6] = test system: normal gastric epithelial cells (GES-1); test: MTT assay, IC50 in normal cells; type: cell-based, human; conditions: GES-1, 24 h and 48 h
Method: as §1, §2, §3, §4, §5

EC9706 and TE10 cells [7] = test: Transwell Matrigel invasion assay; type: cell-based, human; conditions: 48 h
Method: (§8) A total of 100 μL of Matrigel was placed in the upper chamber of a Transwell system and incubated at 37 °C for 2 h to form a white membrane visible to the naked eye. Cells were resuspended in serum-free medium and adjusted to a concentration of 3×10^4 cells/well. Medium containing 10% FBS was added into the lower chamber, and CAR was added based on a concentration gradient. Next, the cells were incubated for 48 h and then stained with crystal violet for 10 min. Then, an inverted microscope was used to observe the cells; five fields were randomly selected to observe and count the cells. To assess cell migration, all the above steps were repeated, but Matrigel was not added to the upper chamber.

[8] = Body weight of xenograft mice; type: in vivo, nude mice; conditions: 5, 15 or 25 mg/kg by gavage, compared with control group
Method: as §7

EC9706 and TE10 cells [9] = test: Transwell migration assay; type: cell-based, human
Method: as §8

[10] = Serum ALT, AST and CR levels; type: in vivo, nude mice; conditions: mean±SD (n=3)
Method: as §7

[11] = test system: EC9706 and TE10 oesophageal cancer cells; test: Hoechst 33258 staining, apoptosis; type: cell-based, human
Method: Cells were seeded into 24-well plates (3×10^4 cells/well). The cells were treated with different concentrations of CAR and then incubated for 48 h, followed by fixation with 4% paraformaldehyde for 30 min and one wash with PBS. The cells were stained with Hoechst 33258 (50 ng/ml) for 30 min. Apoptotic cells were observed using a fluorescence microscope (apoptotic cells were characterized by dense chromatin), and five randomly selected fields were used for cell counting.

[12] = test system: oesophageal cancer cell lines EC9706 and TE10; test: Crystal violet staining, cell proliferation; type: cell-based, human; conditions: 4, 6, 8, 10 µM; 24 h and 48 h; similar in MTT assay
Method: Oesophageal cancer cells at a density of 3×10^4 cells/well were seeded in 24-well plates. Then, the cells were treated with different concentrations of prepared CAR or DMSO, and the NC group was set up. After incubation in an incubator for 24 h and 48 h, crystal violet staining solution was added to each well. After imaging under a scanner, the cells were fully dissolved in 20% acetic acid solution. To calculate cell viability, the optical density (OD) value of each well was measured at 590 nm using an enzyme-linked immunosorbent assay (ELISA) spectrophotometer.

[13] = HE staining of important organs; type: in vivo, nude mice; conditions: treatment group vs control group
Method: as §7
Tumour tissues were fixed with 4% paraformaldehyde and embedded in paraffin. Paraffin-embedded tissue blocks were cut into slices with a thickness of […]. Tumour sections were immunohistochemically stained with PCNA (1:100), Bcl-2 (1:100), vimentin (1:100), phosphorylated Akt (1:100), and phosphorylated PI3K (1:100) antibodies according to the steps of the immunohistochemistry kit. For HE staining, tissues were sectioned after deparaffinization, stained with haematoxylin and eosin, and mounted on slides with neutral gum.

[14] = test system: PCNA, p-PI3K, p-AKT, Bcl2, vimentin; test: Immunohistochemistry of xenograft tumour tissue; type: in vivo, nude mice; conditions: with increasing CAR concentrations
Method: A suspension of EC9706 cells (2×10^7 cells/ml) was injected into the middle of and posterior to the armpit of 4- to 6-week-old male nude mice. One week after inoculation, a soybean-sized subcutaneous mass appeared in the armpits of the mice. Then, different doses of CAR (5, 15, or 25 mg/kg) or sodium carboxymethyl cellulose (CMC), which served as a control, were administered by gavage once every three days. The body weights of the mice and tumour size were measured at the same time. Mice were euthanized 26 days after drug administration. Immunohistochemistry (IHC) was used to stain the tumours, and stomach tissue was stained with haematoxylin-eosin (HE). Tumour tissues were fixed with 4% paraformaldehyde and embedded in paraffin. Paraffin-embedded tissue blocks were cut into slices with a thickness of 3-5 mm. Tumour sections were immunohistochemically stained with PCNA (1:100), Bcl-2 (1:100), vimentin (1:100), phosphorylated Akt (1:100), and phosphorylated PI3K (1:100) antibodies according to the steps of the immunohistochemistry kit. For HE staining, tissues were sectioned after deparaffinization, stained with haematoxylin and eosin, and mounted on slides with neutral gum.

[15] = test system: PI3K/AKT signalling pathway in EC9706 cells; test: Western blot, PI3K/AKT signalling pathway; type: cell-based, human
Method: as §6

EC9706 xenograft = test: EC9706 tumour xenograft model, tumour growth; type: in vivo, nude mice; conditions: 5, 15 or 25 mg/kg by gavage once every three days, compared with control group
Method: as §7

[16] = test system: Bad, Bax, Bcl-2, PARP, caspase-3 in EC9706 cells; test: Western blot, apoptosis-related proteins; type: cell-based, human; conditions: 48 h
Method: as §6

PCNA in EC9706 cells = test: Western blot, proliferation marker; type: cell-based, human; conditions: 48 h
Method: as §6

[17] = test system: EC9706 and TE10 oesophageal cancer cells; test: Wound healing assay; type: cell-based, human; conditions: within 24 h
Method: Oesophageal cancer cells were seeded into 6-well plates (5×10^5 cells/well) and then linearly scratched with a 10-μL pipette tip. After treatment for 24 h with different concentrations of CAR, cell migration was observed using an inverted microscope.

EC9706 cells [18] = test: Annexin V-FITC/PI flow cytometry, apoptosis; type: cell-based, human; conditions: co-incubation with CAR
Method: After the oesophageal cancer cells were treated with different concentrations of CAR for 48 h, the cells were digested with trypsin, washed twice with PBS, and resuspended in 1× loading buffer. The cells were double-stained with 5 µL of annexin V-FITC and 5 μL of PI and then incubated in the dark for 30 min before flow cytometry analysis.

[19] = 5 mg/kg by gavage once every three days
[20] = 15 mg/kg by gavage once every three days
[21] = 25 mg/kg by gavage once every three days
[22] = 48 h, compared with control group

COc1cc(O)cc(O)c1C(=O)/C=C/c1ccccc1 [CAR, Cardamonin]
IC50 in normal cells compared with oesophageal cancer cells [1]: higher IC50 values | E-cadherin expression [2]: upregulated the expression of E-cadherin | MMP2, MMP7 and MMP9 expression [2]: significantly reduced the expression of MMP2, MMP7, and MMP9 | N-cadherin, vimentin and Snail expression [2]: significantly downregulated the expression of N-cadherin and vimentin as well as the EMT transcription factor Snail | IC50 (TE10 cells; 24 h): 12.5 µM | IC50 (TE10 cells; 48 h): 8.4 µM | IC50 (EC9706 cells [3]; 24 h): 12.2 µM | IC50 (EC9706 cells [3]; 48 h): 8.67 µM | colony formation ([4]; two weeks culture): significant inhibitory effect on the colony formation of oesophageal cancer cells in a concentration-dependent manner | Gran [5, 19]: 25.43±2.58% | HCT [5, 19]: 39.87±7.80% | HGB [5, 19]: 131.33 ± 6.51 g/L | LYM [5, 19]: 70.80±4.07% | MCH [5, 19]: 20.07 ± 0.93 pg | MCHC [5, 19]: 348.00 ± 12.77 g/L | MCV [5, 19]: 57.63 ± 1.50 fL | Mon [5, 19]: 3.77±1.95% | PLT [5, 19]: 1009±44.24 ×10^9/L | RBC [5, 19]: 6.91±1.49 ×10^12/L | WBC [5, 19]: 3.90±0.17 ×10^9/L | Gran [5, 20]: 24.53±2.28% | HCT [5, 20]: 35.77±1.86% | HGB [5, 20]: 137.00 ± 19.00 g/L | LYM [5, 20]: 72.30±3.15% | MCH [5, 20]: 19.40 ± 2.07 pg | MCHC [5, 20]: 332.33 ± 19.09 g/L | MCV [5, 20]: 58.33 ± 2.78 fL | Mon [5, 20]: 3.17±1.01% | PLT [5, 20]: 1074.00±42.80 ×10^9/L | RBC [5, 20]: 6.13±0.08 ×10^12/L | WBC [5, 20]: 3.82±0.07 ×10^9/L | Gran [5, 21]: 23.53±2.25% | HCT [5, 21]: 34.30±2.17% | HGB [5, 21]: 142.33 ± 5.69 g/L | LYM [5, 21]: 74.13±1.53% | MCH [5, 21]: 17.93 ± 0.49 pg | MCHC [5, 21]: 336.00 ± 7.00 g/L | MCV [5, 21]: 56.03 ± 1.56 fL | Mon [5, 21]: 3.20±0.87% | PLT [5, 21]: 1077.00±42.58 ×10^9/L | RBC [5, 21]: 6.42±0.19 ×10^12/L | WBC [5, 21]: 3.80±0.14 ×10^9/L | IC50 in normal cells compared with oesophageal cancer cells [6]: higher IC50 values | invasive ability (EC9706 and TE10 cells [7]): significantly inhibited the invasive ability of oesophageal cancer cells | weight of mice [8]: did not significantly change | cell migration (EC9706 and TE10 cells [9]; [22]): significantly inhibited oesophageal cancer cell migration | ALT [10, 19]: 25.97±1.19 U/L | AST [10, 19]: 57.56±2.19 U/L | CR [10, 19]: 51.41 ± 4.33 µmol/L | ALT [10, 20]: 23.50±2.88 U/L | AST [10, 20]: 55.38±3.26 U/L | CR [10, 20]: 49.61 ± 6.54 µmol/L | ALT [10, 21]: 21.04±2.52 U/L | AST [10, 21]: 57.20±4.16 U/L | CR [10, 21]: 53.34 ± 7.72 µmol/L | number of apoptotic cells [11, 22]: gradually increased with increasing drug concentrations | cell proliferation [12]: inhibited oesophageal cancer cell proliferation in time- and concentration-dependent manners | HE staining of important organs [13]: no difference in HE staining was observed between the treatment group and the control group | expression of PCNA, p-PI3K, p-AKT, Bcl2 and vimentin in tumour [14]: the expression levels of PCNA, p-PI3K, p-AKT, Bcl2, and vimentin were downregulated | protein levels of p-PI3K and p-AKT ([15]; EC9706 cells, with increasing CAR concentrations): decreased significantly | tumour growth (EC9706 xenograft): significantly inhibited tumour growth | expression of anti-apoptosis-related proteins [16]: downregulated the expression level of the anti-apoptosis-related proteins Bcl-2, PARP, and caspase-3 | expression of pro-apoptosis-related proteins [16]: upregulated the expression levels of the pro-apoptosis-related proteins Bad, Bax, cleaved PARP, and cleaved caspase-3 | PCNA expression (PCNA in EC9706 cells): significantly inhibited PCNA expression | healing rate [17]: gradually decreased with increases in the CAR concentration

COC(=O)C[C@H](NC(=O)[C@H](C)NC(=O)[C@@H](NC(=O)OCc1ccccc1)C(C)C)C(=O)CF [Z-VAD-FMK] (Cbz-Val-Ala-Asp(OMe)-CH2F)
effect of caspase inhibitor pretreatment on CAR-induced apoptosis (EC9706 cells [18]): could reverse the apoptosis induced by CAR

740Y-P [reference compound]
effect of PI3K agonist on antiproliferation effect of CAR ([4]; MTT and colony formation assays, co-incubation with CAR): could partially reverse the antiproliferation effect of CAR | effect of PI3K agonist on anti-migration and anti-invasion effects of CAR (EC9706 and TE10 cells [9]; scratch healing, Transwell migration and invasion assays, co-incubation with CAR): can partially reverse the anti-migration and anti-invasion effects of CAR on oesophageal cancer cells | effect of PI3K agonist on apoptosis-promoting effect of CAR ([11]; Hoechst 33258 staining and flow cytometry, co-incubation with CAR): could partially reverse the apoptosis-promoting effect of CAR on EC9706 and TE10 cells | effect of PI3K agonist on CAR inhibition of PI3K/AKT ([15]; co-incubation with CAR): eliminated the inhibitory effect of CAR on PI3K/AKT in oesophageal cancer cells
